Assays:
CYP2B6 mRNA = CYP2B6 mRNA induction in cryopreserved human hepatocytes; format: in vitro ADME; details: positive control inducer; human hepatocytes
Method: (§1) The induction potential of Compound A on CYP enzymes was assessed in cryopreserved human hepatocytes from three donors. Following treatment for with Compound A at concentrations of 0.03-30 μM for 48 hours, mRNA levels for CYP1A2, 2B6, 2C8, 2C9, 2C19, and 3A4 were determined by semiquantitative real-time polymerase chain reaction (PCR). Test article concentrations during 24-hour incubation were determined. The potential of Compound A to cause direct and time-dependent inhibition (TDI) of the activities of CYP1A2, 2B6, 2C8, 2C9, 2C19, 2D6, and 3A4 was evaluated in pooled human liver microsomes (HLM) at 0.2-15 μM. Probe substrate concentrations around Km were used for direction inhibition and initial TDI assays. For TDI assay, Compound A was pre-incubated with pooled HLM with and without NADPH for 30 minutes prior to incubation with a single concentration of probe substrate.

CYP1A2 mRNA = CYP1A2 mRNA induction in cryopreserved human hepatocytes; format: in vitro ADME; details: positive control inducer; human hepatocytes
Method: as §1

Structure (SMILES) | CYP2B6 mRNA Fold induction, PC (CYP2B6 mRNA) | CYP1A2 mRNA Fold induction, PC (CYP1A2 mRNA)
CCC1(c2ccccc2)C(=O)NC(=O)NC1=O [Phenobarbital, reference compound] | 14-25 Fold | 
COc1ccc2[nH]c([S+]([O-])Cc3ncc(C)c(OC)c3C)nc2c1 (centres unmarked) [Omeprazole, reference compound] |  | 77-88 Fold
